Laboratory results from PMC12686497, “Exploring neurokinin-1 receptor antagonism for depression with structurally differentiated inhibitors” (Experimental & Molecular Medicine, 2025).

Key:
[1] = molecular target: T1, NK1R (hTACR1-HEK293 cells) (Homo sapiens, UniProt P25103); assay: FLIPR calcium 6 assay, SP-induced intracellular calcium mobilization; type: cell-based; conditions: 1 nM SP
T1 construct: expressed in transfected cells; host or cells: HEK293
Method: The following day, the cells were loaded with the FLIPR calcium 6 dye mixed at 1:1 to medium with 2.5 mM probenecid. The assay plate was wrapped with aluminum foil and incubated for 2 h at 37 °C in a humidified CO2 incubator. Each concentration of chemicals was dissolved in 1× Hank’s Balanced Salt Solution (plus 20 mM HEPES buffer, pH 7.4) and added to the well. The plate was incubated for 30 min at 37 °C before measuring. The final concentration of dimethyl sulfoxide was 0.5% in each well. Then, 1 nM SP-induced intracellular calcium mobilization was examined by monitoring the fluorescence intensity (excitation at 485 nm, emission at 525 nm, cutoff filter set at 515 nm) using a Flex Station 3 multimode microplate reader. Changes in fluorescence signal after SP addition were normalized to its starting signal and denoted as F/F0.

[2] = system: IL-1β, TNF-α and IL-6 mRNA; assay: qRT-PCR of proinflammatory cytokine mRNA in frontal cortex and hippocampus, LPS model; type: in vivo, C57BL/6 mice; conditions: 10 mg/kg i.p., 4 h after LPS, vs LPS-treated group
Method: (§1) The ligands were dissolved at a dose of 10 mg/kg in the vehicle (10% dimethyl sulfoxide and 10% Kolliphor in 0.9% saline) and intraperitoneally injected into each animal in experimental groups.
(§2) To generate the lipopolysaccharide (LPS) model, 0.25 mg/kg of LPS from E. coli O26:B6 (Sigma, L3755) was dissolved in 0.9% saline and injected intraperitoneally. The control group was treated with 0.9% saline instead of LPS injection. The mice received injections of either vehicle, compound #1, compound #15 or Aprepitant (Tocris Bioscience) on day 1, 1 h before LPS injection and on day 2.
Four hours after LPS injection, the frontal lobe and hippocampus were isolated from the animal brain and placed in TRIzol solution (Ambion). Total RNA sample (2 μg) was reverse-transcribed into cDNA using Moloney Murine Leukemia Virus reverse transcriptase (M-MLV RT; Promega) and oligo (dT) primer (Novagen). Quantitative reverse transcription polymerase chain reaction (qRT–PCR), which quantifies gene expression levels, was performed using 0.5 μg of the reverse-transcription generated cDNA and specific primer sets (Supplementary Table 3). PCR amplification with iQ SYBR Green Supermix was performed in triplicate using the CFX96 Touch-Time System (Bio-Rad). The final products of qRT–PCR were electrophoresed on 2% agarose gels and visualized with SafeView Nucleic Acid Stain (G108, Applied Biological Materials). Cycle threshold (Ct) values at which the fluorescent signal exceeded the background were determined by qRT–PCR, and expression values for each gene were normalized to expression values of GAPDH. Relative quantification to calculate fold change was performed using the comparative Ct method (ΔΔCt).

[3] = system: LPS-induced depressive-like behavior; assay: Tail suspension test (TST) in LPS model; type: in vivo, C57BL/6 mice; conditions: 10 mg/kg i.p., vs LPS-treated group
Method: as §1, §2
On day 4 after LPS administration, the tail suspension test (TST) was conducted. A four-chamber apparatus divided by nontransparent acrylic partitions was used, and the mice were suspended in each chamber by the tail. A video was recorded for 6 min, and the last 4 min were manually scored for immobility time.

[4] = system: RS-induced despair-like behavior; assay: Forced swim test (FST) in restraint stress (RS) model; type: in vivo, C57BL/6 mice; conditions: 10 mg/kg i.p. day 11 to 20
Method: as §1
To induce depressive-like behaviors in mice, restraint stress (RS) was applied using 50-ml conical tubes with many holes for 20 days, 2 h per day. From day 11 to 20, mice received injections of either vehicle or compound #15.
(§3) On day 21 in the RS model and day 12 in the SI model, the forced swim test (FST) was performed. During each trial, mice were placed in a test cylinder (diameter 15 cm, height 25 cm) filled with water regulated at 25 ± 1 °C, and a video was recorded for 6 min. Immobility time was manually scored during the last 4 min of each trial.

[5] = system: SI-induced despair-like behavior; assay: Forced swim test (FST) in social isolation (SI) stress model; type: in vivo, C57BL/6 mice; conditions: 10 mg/kg i.p. day 6 to 13
Method: as §1
To generate the social isolation (SI) stress model, the animals were single-caged for 14 days. From day 6 to 13, mice received injections of either vehicle or compound #15.
as §3

T1 sequence (P25103 whole entry): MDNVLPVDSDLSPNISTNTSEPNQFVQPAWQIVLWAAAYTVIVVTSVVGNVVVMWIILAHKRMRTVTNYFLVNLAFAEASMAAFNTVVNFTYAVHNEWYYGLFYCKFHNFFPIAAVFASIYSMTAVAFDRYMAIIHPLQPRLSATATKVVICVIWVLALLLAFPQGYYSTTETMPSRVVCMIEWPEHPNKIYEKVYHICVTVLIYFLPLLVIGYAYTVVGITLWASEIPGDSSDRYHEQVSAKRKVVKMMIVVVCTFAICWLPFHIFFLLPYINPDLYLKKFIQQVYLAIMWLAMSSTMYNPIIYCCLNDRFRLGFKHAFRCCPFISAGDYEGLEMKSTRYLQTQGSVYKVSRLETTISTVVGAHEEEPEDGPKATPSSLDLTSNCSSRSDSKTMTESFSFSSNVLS

Structure (SMILES)	NK1R antagonistic / inhibitory activity (in words) [1]	IL-6 mRNA level ([2]; frontal cortex)	TNF-α mRNA level ([2]; frontal cortex)	IL-1β mRNA level ([2]; hippocampus)	IL-6 mRNA level ([2]; hippocampus)	TNF-α mRNA level ([2]; hippocampus)	immobility time in TST [3]	also measured
COc1ccc(-c2[nH]c3ccc(F)cc3c2CCC(=O)NC(C)c2ccc(-n3cncn3)cc2)cc1 (stereo not shown) [#1]	–	significantly reduced	significantly reduced	significantly reduced	significantly reduced	significantly reduced	significant reduction in immobility time	IC50 (in words) [1]: single-digit micromolar
Cc1ccc2[nH]c(-c3ccc(Br)cc3)c(CCC(=O)NC(c3ccc(C(C)C)cc3)C(C)C)c2c1 (stereo not shown) [#15]	–	–	–	–	–	–	significantly reduced immobility time	IC50 [1]: 79.5 nM; immobility time in FST [4]: notable reduction in immobility time; immobility time in FST [5]: notable reduction in immobility time
C[C@@H](O[C@H]1OCCN(Cc2n[nH]c(=O)[nH]2)[C@H]1c1ccc(F)cc1)c1cc(C(F)(F)F)cc(C(F)(F)F)c1 [Aprepitant, reference compound]	–	significantly reduced	significantly reduced	significantly reduced	significantly reduced	significantly reduced	significant reduction in immobility time	–

Now from value to compound, other results behind:

NK1R antagonistic / inhibitory activity (in words) [1]	Structure (SMILES)	IL-6 mRNA level ([2]; frontal cortex)	TNF-α mRNA level ([2]; frontal cortex)	IL-1β mRNA level ([2]; hippocampus)	IL-6 mRNA level ([2]; hippocampus)	TNF-α mRNA level ([2]; hippocampus)	immobility time in TST [3]	also measured
weaker inhibitory effects	COc1ccc(C(C)=O)cc1CC(=O)N(C)Cc1cc(Br)ccc1OC [#2]	–	–	–	–	–	–	–
weaker inhibitory effects	Cc1cc(F)ccc1C1CCN(C(=O)NC2CCOC3(CCOC3)C2)CC1 (stereo not shown) [#3]	–	–	–	–	–	–	–
